In patent US9725460B2, “Oridonin analogs, compositions, and methods related thereto” (THE BOARD OF REGENTS OF THE UNIVERSITY OF TEXAS SYSTEM, priority 2013, dated 2017):
Where two headings read alike, the source gives them in different places.

Experiments:
Details in all cases: Homo sapiens
MDA-MB-231 = assay: MTT cancer cell proliferation assay, MDA-MB-231; assay type: cell-based, human
Procedure: (§1) In Vitro Determination of Effects of Synthesized Diterpenoids on Cancer Cell Proliferation. Breast cancer cell lines MCF-7, MDA-MB-231, […] and MCF/ADR were seeded in 96-well plates at a density of 1×10^4 cells/well and treated with DMSO and 0.01, 0.1, 1, 5, 10, and 100 μM of individual compound for 48 h, and then 20 μL of 3-(4,5-dimethylthiazol-2-yl)-2,5-diphenyltetrazolium bromide (MTT) (5 mg/mL in PBS) was added to each well and further incubated for another 4 h. Then MTT solution was removed, and 150 μL of DMSO was added to each well. Absorbance of all wells was determined by measuring OD at 550 nm after a 10 min incubation on a 96-well GlowMaxate absorbance reader (Promega, Madison, Wis.). Each individual compound was tested in quadruplicate wells for each concentration.
(§2) The growth inhibitory effects of the newly generated pyran-fused diterpenoids were evaluated in four breast cancer cell lines MCF-7 (ER-positive), MDAMB-231 (ER-negative and triple-negative), MDA-MB-468 (ER-negative and triple-negative) as well as MCF-7/ADR (adriamycin-resistant) using MTT assays as described in the Experimental Section.

MCF-7 = assay: MTT cancer cell proliferation assay, MCF-7; assay type: cell-based, human
Procedure: as §1, §2

AsPC1 = assay: Cancer cell proliferation assay, AsPC1; assay type: cell-based
Procedure: (§3) In Vitro Determination of Effects of Synthesized Diterpenoids on Cancer Cell Proliferation. […] Then MTT solution was removed, and 150 μL of DMSO was added to each well. Absorbance of all wells was determined by measuring OD at 550 nm after a 10 min incubation on a 96-well GlowMaxate absorbance reader (Promega, Madison, Wis.). Each individual compound was tested in quadruplicate wells for each concentration.

Panc-1 = assay: Cancer cell proliferation assay, Panc-1; assay type: cell-based
Procedure: as §3

[1] = MDA-MB-231, Table 1b, triazole substituted analogues, mean of three experiments, read-out: IC50 (μM) MDA-MB-231
[2] = MCF7, Table 1b, triazole substituted analogues, mean of three experiments, read-out: IC50 (μM) MCF-7
[3] = ASPC1, read-out: IC50 (μM) AsPC1
[4] = MDA-MB-231, read-out: Antiproliferative effect MDA-MB-231 (IC50)
[5] = MDA-MB-231, read-out: IC50 (μM) MDA-MB-231
[6] = MCF7, read-out: Antiproliferative effect MCF-7 (IC50)
[7] = MCF7, read-out: IC50 (μM) MCF-7
[8] = PANC-1, read-out: IC50 (μM) Panc-1
[9] = ASPC1, Table 2a, A-ring modified analogues, read-out: IC50 (μM) AsPC1
[10] = MDA-MB-231, Table 2a, A-ring modified analogues, read-out: IC50 (μM) MDA-MB-231
[11] = MCF7, Table 2a, A-ring modified analogues, read-out: IC50 (μM) MCF-7
[12] = PANC-1, Table 2a, A-ring modified analogues, read-out: IC50 (μM) Panc-1

SMILES | IC50 (MDA-MB-231; [1]) [µM] | IC50 (MCF-7; [2]) [µM] | IC50 (AsPC1; [3]) [µM] | IC50 (MDA-MB-231; [5]) [µM] | IC50 (MCF-7; [7]) [µM] | IC50 (Panc-1; [8]) [µM] | also measured
C=C1C(=O)[C@@]23[C@@H]4OC(C)(C)OC25OC[C@]2([C@@H](n6cc(-c7ccccc7)nn6)C=CC(C)(C)[C@H]2[C@@H]5O)[C@@H]3CC[C@@H]14 [CYD-7-86] | 0.48 | 0.38 |  |  |  |  | 
C=C1C(=O)[C@]23[C@H](O)[C@H]1CC[C@H]2[C@]12C=CC(=O)C(C)(C)[C@H]1[C@H](O)[C@@]3(O)OC2 [CYD-6-93, (4aS,5S,6S,6aR,9S,11aS,11bR,14R)-5,6,14-trihydroxy-4,4-dimethyl-8-methylene-4,4a,5,6,9,10,11,11a-octahydro-3H-6,11b-(epoxymethano)-6a,9-methanocyclohepta[a]naphthalene-3,7(8H)-dione] |  |  | 10.2 | 10.3 | 0.71 | 9.67 | IC50 (MDA-MB-231; [4]): 9.39 ± 0.48 µM; IC50 (MCF-7; [6]): 3.48 ± 2.16 µM
C=C1C(=O)[C@]23[C@H](O)[C@H]1CC[C@H]2[C@@]12COC3(O)[C@@H](O)[C@@H]1C(C)(C)CC13CC[C@]4(CC(C)(C)[C@H]5[C@H](O)[C@]6(O)OC[C@]5(C4=O)[C@@H]4CC[C@H]5C(=C)C(=O)[C@]46[C@@H]5O)OC12O3 (stereo partly drawn) [CYD-6-39, (2R,4aR,4a′R,5′S,6aR,6′S,6a′R,7S,8S,8aR,9′S,11S,11a′S,11b′S,13aS,13bS,13cR,14′R,17R)-5′,6′,7,8,14′,17-hexahydroxy-4′,4′,6,6-tetramethyl-8′,10-dimethylenehexadecahydro-3H-spiro[4a,13c-epoxy-8,13b-(epoxymethano)-8a,11-methanocyclohepta[3,4]benzo[1,2-h]chromene-2,2′-6,11b-(epoxymethano)-6a,9-methanocyclohepta[a]naphthalene]-1′,7′,9(3′H,4H,5H,8′H,10H)-trione] |  |  |  |  |  |  | IC50 (AsPC1; [9]): 104 µM; IC50 (MDA-MB-231; [10]): > 10 µM; IC50 (MCF-7; [11]): > 10 µM; IC50 (Panc-1; [12]): > 10 µM
C=C1C(=O)[C@@]23[C@@H]4OC(C)(C)OC25OC[C@]2(C=C[C@H](O)C(C)(C)[C@H]2[C@@H]5O)[C@@H]3CC[C@@H]14 [CYD-6-81, (3S,3aR,3a^1R,6aR,7S,7aS,9S,11aR,11bS)-7,9-dihydroxy-5,5,8,8-tetramethyl-15-methylene-2,3,3a,7,7a,8,9,11b-octahydro-1H-6a,11a-(epoxymethano)-3,3a^1-ethanophenanthro[1,10-de][1,3]dioxin-14-one] |  |  |  |  |  |  | IC50 (AsPC1; [9]): > 10 µM; IC50 (MDA-MB-231; [10]): 10.5 µM; IC50 (MCF-7; [11]): 2.56 µM; IC50 (Panc-1; [12]): 5.24 µM
C=C1C(=O)[C@]23[C@H](O)[C@H]1CC[C@H]2[C@@]12COC3(O)[C@@H](O)[C@@H]1C(C)(C)CC1=C2O[C@]2(CC1)CC(C)(C)[C@H]1[C@H](O)[C@]3(O)OC[C@]1(C2=O)[C@@H]1CC[C@H]2C(=C)C(=O)[C@]13[C@@H]2O [CYD-5-40-2, (2R,4aR,5S,6S,6aR,6a′R,7′S,8′S,8a′R,9S,11aS,11bS,11′S,13a′S,13b′S,14R,16′R)-5,6,7′,8′,14,16′-hexahydroxy-4,4,6′,6′-tetramethyl-8,10′-dimethylene-4,4a,5,6,6′,6a′,7′,8′,9,10,11,11a,11′,12′,13′,13a′-hexadecahydro-3′H-spiro[6,11b-(epoxymethano)-6a,9-methanocyclohepta[a]naphthalene-2,2′-8,13b-(epoxymethano)-8a,11-methanocyclohepta[3,4]benzo[1,2-h]chromene]-1,7,9′(3H,4′H,5′H,8H,10′H)-trione] |  |  | 10.2 | 9.64 | 4.82 | 8.07 | 
C=C1C(=O)[C@]23[C@H](O)[C@H]1CC[C@H]2[C@]12C=CCC(C)(C)[C@H]1[C@H](O)[C@@]3(O)OC2 [CYD-6-82, (4aR,5S,6S,6aR,9S,11aS,11bR,14R)-5,6,14-trihydroxy-4,4-dimethyl-8-methylene-4,4a,5,6,9,10,11,11a-octahydro-3H-6,11b-(epoxymethano)-6a,9-methanocyclohepta[a]naphthalen-7(8H)-one] |  |  | 1.09 | 3.9 | 0.79 | 1.19 | 
C=C1C(=O)[C@]23[C@H](O)[C@H]1CC[C@H]2[C@@]12COC3(O)[C@@H](O)[C@@H]1C(C)(C)C[C@H](n1cc(-c3ccc(C(C)(C)C)cc3)nn1)[C@H]2O [CYD-8-5] | 3.5 | 1.9 |  |  |  |  | 
C=C1C(=O)[C@@]23[C@@H]4OC(C)(C)OC25OC[C@]2(C=CCC(C)(C)[C@H]2[C@@H]5O)[C@@H]3CC[C@@H]14 [CYD-6-75, (3S,3aR,3a^1R,6aR,7S,7aR,11aR,11bS)-7-hydroxy-5,5,8,8-tetramethyl-15-methylene-2,3,3a,7,7a,8,9,11b-octahydro-1H-6a,11a-(epoxymethano)-3,3a^1-ethanophenanthro[1,10-de][1,3]dioxin-14-one] |  |  |  |  |  |  | IC50 (AsPC1; [9]): 6.78 µM; IC50 (MDA-MB-231; [10]): 3.95 µM; IC50 (MCF-7; [11]): 0.95 µM; IC50 (Panc-1; [12]): 7.25 µM
C=C1C(=O)[C@]23[C@H](O)[C@H]1CC[C@H]2[C@]12C=C[C@H](O)C(C)(C)[C@H]1[C@H](O)[C@@]3(O)OC2 [CYD-6-90, (3S,4aS,5S,6S,6aR,9S,11aS,11bR,14R)-3,5,6,14-tetrahydroxy-4,4-dimethyl-8-methylene-4,4a,5,6,9,10,11,11a-octahydro-3H-6,11b-(epoxymethano)-6a,9-methanocyclohepta[a]naphthalen-7(8H)-one] |  |  |  |  |  |  | IC50 (AsPC1; [9]): > 10 µM; IC50 (MDA-MB-231; [10]): 26.1 µM; IC50 (MCF-7; [11]): 1.21 µM; IC50 (Panc-1; [12]): > 10 µM
C=C1C(=O)[C@@]23C(=O)[C@@H](O)[C@@H]4C(C)(C)[C@@H]5OC[C@]4(C(=O)/C5=C/OC)[C@@H]2CC[C@@H]1[C@H]3O [CYD-7-13] |  |  |  |  |  |  | IC50 (MDA-MB-231; MDA-MB-231, Table 1c, dienone analogues, mean ± SE of three experiments, read-out: Antiproliferative effect MDA-MB-231 (IC50)): > 30 µM; IC50 (MCF-7; MCF7, Table 1c, dienone analogues, mean ± SE of three experiments, read-out: Antiproliferative effect MCF-7 (IC50)): 10.2 ± 3.07 µM
C=C1C(=O)[C@@]23[C@@H]4OC(C)(C)OC25OC[C@]2([C@H](O)[C@@H](n6cc(-c7ccc(C(C)(C)C)cc7)nn6)CC(C)(C)[C@H]2[C@@H]5O)[C@@H]3CC[C@@H]14 [CYD-8-3] | 1.1 | 2 |  |  |  |  | 
C=C1C(=O)[C@@]23[C@@H]4OC(C)(C)OC25OC[C@]2(C(=O)/C(=C\N(C)C)CC(C)(C)[C@H]2[C@@H]5O)[C@@H]3CC[C@@H]14 [CYD-6-77, (3S,3aR,3a^1R,6aR,7S,7aR,11aS,11bS,Z)-10-((dimethylamino)methylene)-7-hydroxy-5,5,8,8-tetramethyl-15-methyleneoctahydro-1H-6a,11a-(epoxymethano)-3,3a^1-ethanophenanthro[1,10-de][1,3]dioxine-11,14(2H)-dione] |  |  | 11.8 | 165 | 9.07 | > 10 | 
C=C1C(=O)[C@@]23C(=O)[C@@H](O)[C@@H]4C(C)(C)[C@@H]5OC[C@]4(C(=O)/C5=C\O)[C@@H]2CC[C@@H]1[C@H]3O [CYD-7-5] |  |  | > 10 | > 10 | > 10 | > 10 | IC50 (MDA-MB-231; [4]): > 30 µM; IC50 (MCF-7; [6]): > 30 µM

Now from value to molecule, other results behind:

IC50 (MDA-MB-231; [1]) [µM] | IC50 (MCF-7; [2]) [µM] | SMILES | IC50 (AsPC1; [3]) [µM] | IC50 (MDA-MB-231; [5]) [µM] | IC50 (MCF-7; [7]) [µM] | IC50 (Panc-1; [8]) [µM] | also measured
1.8 | 2.3 | C=C1C(=O)[C@]23[C@H](O)[C@H]1CC[C@H]2[C@]12C=C[C@@H](n4cc(-c5ccccc5)nn4)C(C)(C)[C@H]1[C@H](O)C3(O)OC2 [CYD-7-82] |  |  |  |  | 
1.8 | 2.1 | C=C1C(=O)[C@]23[C@H](O)[C@H]1CC[C@H]2[C@@]12COC3(O)[C@@H](O)[C@@H]1C(C)(C)C=C[C@@H]2n1cc(-c2ccccc2)nn1 [CYD-7-90] |  |  |  |  | 
